The source of these data is US7148194B2, “Method to increase fibronectin” (Kimberly-Clark Worldwide, Inc., priority 2002, dated 2006).

The series concerns EpiDerm skin model. The series is described as follows: viability assay (MTT) in EpiDerm skin model. The series is classed as cell-based. Conditions: peptide at 500 μM and 2 mM, relative to PBS control. On the procedure: The sample containers were transferred to 6 well plates that contained fresh media. All peptides were dissolved in PBS at a final concentration of 10 mM, and 100 μL each peptide solution was pipetted onto the surface of the Epiderm sample container. Incubation was continued for 12 hours at 37° C., 5% CO2. After the incubation period, the sample containers were washed three times with PBS and the sample containers were transferred to a 24 well plate that contained 300 μL of MTT assay media per well (MTT concentration was 1 mg/mL). The colorimetric assay was allowed to develop for three hours (incubation at 37° C., 5% CO2). Sample containers were then transferred to a 24 well culture plate that contained 2 mL of isopropanol per well. Extraction of the colored precipitate occurred over a period of four hours at room temperature. Absorbance readings were taken at 570 nm and 650 nm for each sample. The percent viability of each sample relative to a PBS control was calculated as: 100×(OD570^sam−OD650^sam)/(OD570^con−OD650^con) (6) Routinely, the peptide sample was assayed in triplicate. Results

For `CC(C)[C@H](NC(=O)[C@H](CC(=O)O)NC(=O)[C@@H]1CCCN1C(=O)[C@H](CC(N)=O)NC(=O)CNC(=O)[C@H](CS)NC(=O)[C@H](CCCNC(=N)N)NC(=O)[C@@H]1CCCN1)C(=O)N[C@@H](C)C(=O)N[C@@H](CC(N)=O)C(=O)N[C@@H](Cc1ccc(O)cc1)C(=O)N[C@@H](CC(N)=O)C(=O)N[C@@H](Cc1ccccc1)C(=O)N[C@@H](Cc1ccccc1)C(=O)N1CCC[C@H]1C(=O)N[C@@H](CCCNC(=N)N)C(=O)N[C@@H](CCCCN)C(=O)N1CCC[C@H]1C(=O)N[C@@H](CCCCN)C(=O)O` [Peptide 19-mer], the total average viability amounted to 97.6%.
